Results taken from ChEMBL document CHEMBL1201862, “PubChem BioAssay data set” (2004).
Calls of active or inactive are those of the source.

Columns and labels:
[1] = molecular target: Induced myeloid leukemia cell differentiation protein Mcl-1 (Homo sapiens, UniProt Q07820); format: functional
[2] = molecular target: T1, Mannose-6-phosphate isomerase (Homo sapiens, UniProt P34949); assay: MPI enzyme activity inhibition – biochemical, fluorescence intensity, coupled assay, primary screen (AID 1209)
T1 sequence (P34949 whole entry): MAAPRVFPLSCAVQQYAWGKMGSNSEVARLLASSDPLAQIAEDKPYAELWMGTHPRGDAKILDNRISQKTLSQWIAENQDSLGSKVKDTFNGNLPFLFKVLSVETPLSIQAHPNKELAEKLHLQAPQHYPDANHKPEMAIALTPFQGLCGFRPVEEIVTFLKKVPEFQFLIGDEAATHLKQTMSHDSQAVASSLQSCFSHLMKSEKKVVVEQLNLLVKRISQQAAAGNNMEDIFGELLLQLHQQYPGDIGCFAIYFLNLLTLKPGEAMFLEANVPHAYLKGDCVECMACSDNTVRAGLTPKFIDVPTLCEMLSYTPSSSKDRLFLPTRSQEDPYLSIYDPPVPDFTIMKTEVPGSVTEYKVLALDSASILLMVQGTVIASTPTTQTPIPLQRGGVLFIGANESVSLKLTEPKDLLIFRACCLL

[3] = molecular target: T2, Aminopeptidase N (Plasmodium falciparum FcB1/Columbia, UniProt O96935); assay: malaria alanyl aminopeptidase activity blockers – biochemical, fluorogenic H-Leu-NHMec substrate, 1536-well (AID 1445); design: species or system Plasmodium falciparum 3D7, 3D7
T2 sequence (O96935 whole entry): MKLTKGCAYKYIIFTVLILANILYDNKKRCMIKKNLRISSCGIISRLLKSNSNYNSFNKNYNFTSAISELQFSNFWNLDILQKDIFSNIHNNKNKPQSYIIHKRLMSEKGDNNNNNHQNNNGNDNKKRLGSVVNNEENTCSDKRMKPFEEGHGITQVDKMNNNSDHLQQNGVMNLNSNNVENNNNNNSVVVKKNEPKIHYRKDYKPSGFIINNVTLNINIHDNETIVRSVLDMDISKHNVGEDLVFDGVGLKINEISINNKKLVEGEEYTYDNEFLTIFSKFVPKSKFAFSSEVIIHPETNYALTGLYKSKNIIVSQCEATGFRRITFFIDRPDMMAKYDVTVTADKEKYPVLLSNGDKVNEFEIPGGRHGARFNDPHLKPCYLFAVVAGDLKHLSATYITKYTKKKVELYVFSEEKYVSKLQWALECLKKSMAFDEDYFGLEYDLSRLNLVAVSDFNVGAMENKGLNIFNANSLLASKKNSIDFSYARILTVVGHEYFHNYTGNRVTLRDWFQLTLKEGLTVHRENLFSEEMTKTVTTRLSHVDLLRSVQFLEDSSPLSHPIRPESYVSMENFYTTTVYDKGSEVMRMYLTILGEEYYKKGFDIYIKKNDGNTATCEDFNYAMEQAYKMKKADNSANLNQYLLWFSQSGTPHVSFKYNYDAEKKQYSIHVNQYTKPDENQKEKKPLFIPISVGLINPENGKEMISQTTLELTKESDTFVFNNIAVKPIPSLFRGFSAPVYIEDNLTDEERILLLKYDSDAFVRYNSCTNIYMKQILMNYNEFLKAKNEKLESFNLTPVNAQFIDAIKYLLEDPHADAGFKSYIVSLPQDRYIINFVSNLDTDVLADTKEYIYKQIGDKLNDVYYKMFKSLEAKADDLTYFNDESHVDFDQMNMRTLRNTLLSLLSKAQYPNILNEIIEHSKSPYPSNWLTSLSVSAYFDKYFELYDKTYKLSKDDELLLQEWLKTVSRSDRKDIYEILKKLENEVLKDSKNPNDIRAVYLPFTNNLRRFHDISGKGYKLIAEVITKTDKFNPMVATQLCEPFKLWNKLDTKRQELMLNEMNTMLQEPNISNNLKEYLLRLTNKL

[4] = molecular target: T1, Mannose-6-phosphate isomerase; assay: MPI inhibition at elevated mannose 6-phosphate – biochemical, fluorescence intensity, high mannose 6-phosphate, primary screen (AID 1220)
[5] = molecular target: Glyceraldehyde-3-phosphate dehydrogenase (Homo sapiens, UniProt P04406)
Chain of Glyceraldehyde-3-phosphate dehydrogenase (P04406 whole entry): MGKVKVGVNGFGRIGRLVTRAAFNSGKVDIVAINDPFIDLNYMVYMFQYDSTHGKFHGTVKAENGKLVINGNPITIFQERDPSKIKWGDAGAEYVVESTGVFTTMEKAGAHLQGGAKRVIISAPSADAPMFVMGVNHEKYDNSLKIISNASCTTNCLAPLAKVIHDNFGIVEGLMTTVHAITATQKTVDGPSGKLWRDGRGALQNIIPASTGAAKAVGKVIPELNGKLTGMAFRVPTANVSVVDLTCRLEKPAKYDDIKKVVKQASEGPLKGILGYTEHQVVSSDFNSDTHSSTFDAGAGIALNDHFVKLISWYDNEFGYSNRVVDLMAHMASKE

[6] = molecular target: T3, Rac GTPase-activating protein 1 (Homo sapiens, UniProt Q9H0H5); assay: blockers of MgcRacGAP-driven Rac1 GTP hydrolysis – biochemical, ADP Hunter fluorescence, primary and confirmatory, confirmation (AID 624330); format: functional
T3 sequence (Q9H0H5 whole entry): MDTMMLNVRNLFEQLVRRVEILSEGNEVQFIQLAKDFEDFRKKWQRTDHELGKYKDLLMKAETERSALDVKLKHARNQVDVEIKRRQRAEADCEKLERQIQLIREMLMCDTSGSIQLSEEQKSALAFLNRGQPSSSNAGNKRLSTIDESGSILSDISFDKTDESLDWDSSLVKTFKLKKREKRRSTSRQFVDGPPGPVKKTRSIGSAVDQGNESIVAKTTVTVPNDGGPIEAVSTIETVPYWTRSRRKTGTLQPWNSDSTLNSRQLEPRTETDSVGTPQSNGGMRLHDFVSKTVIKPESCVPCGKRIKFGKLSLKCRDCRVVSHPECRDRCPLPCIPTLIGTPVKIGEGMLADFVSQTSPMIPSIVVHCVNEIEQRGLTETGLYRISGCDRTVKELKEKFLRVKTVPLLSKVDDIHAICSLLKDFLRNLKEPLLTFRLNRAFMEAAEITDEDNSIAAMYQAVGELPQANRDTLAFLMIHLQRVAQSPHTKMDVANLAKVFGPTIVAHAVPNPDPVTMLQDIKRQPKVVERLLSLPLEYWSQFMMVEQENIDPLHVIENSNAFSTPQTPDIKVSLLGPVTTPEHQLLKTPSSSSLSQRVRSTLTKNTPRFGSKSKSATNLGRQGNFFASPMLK

[7] = molecular target: Large T antigen (Simian virus 40, UniProt P03070); format: functional, Betapolyomavirus macacae;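 note: Confirmatory-stage PubChem screen for compounds that inhibit SV40 T antigen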
Chain of Large T antigen (P03070 whole entry, the tested form may be a part): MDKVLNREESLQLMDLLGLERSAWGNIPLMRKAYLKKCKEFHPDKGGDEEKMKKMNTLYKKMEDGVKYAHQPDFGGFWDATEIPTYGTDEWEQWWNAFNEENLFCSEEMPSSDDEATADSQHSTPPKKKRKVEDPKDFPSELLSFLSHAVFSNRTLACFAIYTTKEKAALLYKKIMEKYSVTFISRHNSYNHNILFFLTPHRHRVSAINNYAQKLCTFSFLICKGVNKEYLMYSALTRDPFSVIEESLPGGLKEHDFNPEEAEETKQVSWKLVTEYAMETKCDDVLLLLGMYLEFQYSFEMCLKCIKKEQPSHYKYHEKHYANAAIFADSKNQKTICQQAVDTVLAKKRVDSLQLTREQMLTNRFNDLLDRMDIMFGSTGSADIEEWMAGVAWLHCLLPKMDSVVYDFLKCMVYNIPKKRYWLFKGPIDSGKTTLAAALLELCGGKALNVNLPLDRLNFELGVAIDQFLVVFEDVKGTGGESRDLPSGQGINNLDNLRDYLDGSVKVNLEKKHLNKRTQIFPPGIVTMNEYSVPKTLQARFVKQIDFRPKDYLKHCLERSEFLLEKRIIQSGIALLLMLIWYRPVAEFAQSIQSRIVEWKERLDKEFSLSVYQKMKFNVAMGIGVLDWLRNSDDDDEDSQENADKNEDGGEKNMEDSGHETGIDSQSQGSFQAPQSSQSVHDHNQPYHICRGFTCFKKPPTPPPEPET

[8] = molecular target: T4, Polyadenylate-binding protein 1 (Homo sapiens, UniProt P11940); assay: MLLE domain peptide-binding blockers, IC50 – biochemical, fluorescence polarization, FITC-PAM2 peptide, dose response (AID 602259); format: functional; conditions: read-out: IC50_Mean
T4 sequence (P11940 whole entry, the tested form may be a part): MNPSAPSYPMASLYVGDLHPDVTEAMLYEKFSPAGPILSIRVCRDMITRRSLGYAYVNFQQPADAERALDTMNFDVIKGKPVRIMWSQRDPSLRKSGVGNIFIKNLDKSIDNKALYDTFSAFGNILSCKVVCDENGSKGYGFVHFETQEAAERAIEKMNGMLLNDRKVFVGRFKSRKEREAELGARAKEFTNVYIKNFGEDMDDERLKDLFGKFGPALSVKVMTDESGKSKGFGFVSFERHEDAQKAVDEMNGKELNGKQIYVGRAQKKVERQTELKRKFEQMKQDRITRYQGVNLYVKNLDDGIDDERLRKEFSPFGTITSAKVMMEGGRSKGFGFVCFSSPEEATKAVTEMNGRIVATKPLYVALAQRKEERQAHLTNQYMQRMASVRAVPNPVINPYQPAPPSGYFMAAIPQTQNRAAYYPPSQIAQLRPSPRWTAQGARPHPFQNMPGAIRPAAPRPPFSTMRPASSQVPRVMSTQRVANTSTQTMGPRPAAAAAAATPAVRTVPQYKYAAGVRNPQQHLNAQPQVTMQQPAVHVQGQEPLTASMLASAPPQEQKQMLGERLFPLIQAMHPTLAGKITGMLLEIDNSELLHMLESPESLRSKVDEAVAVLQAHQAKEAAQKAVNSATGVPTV

[9] = molecular target: T4, Polyadenylate-binding protein 1; assay: MLLE binding blockers, Cy5 peptide tracer – biochemical, fluorescence polarization, Cy5-PAM2 peptide, secondary, miRNA deadenylation inhibitor project, dose response (AID 602260); format: functional; conditions: read-out: IC50_Mean
[10] = molecular target: T5, Protein RecA (Mycobacterium tuberculosis, UniProt P9WHJ3); assay: Fluorescence Cell-Free Homogeneous Dose Retest to Identify Inhibitors of RecA-Intein Splicing Activity. [Related pubchem assays (depositor defined):AID2097, AID2223, AID489010, AID492950]; format: functional
T5 sequence (P9WHJ3 whole entry): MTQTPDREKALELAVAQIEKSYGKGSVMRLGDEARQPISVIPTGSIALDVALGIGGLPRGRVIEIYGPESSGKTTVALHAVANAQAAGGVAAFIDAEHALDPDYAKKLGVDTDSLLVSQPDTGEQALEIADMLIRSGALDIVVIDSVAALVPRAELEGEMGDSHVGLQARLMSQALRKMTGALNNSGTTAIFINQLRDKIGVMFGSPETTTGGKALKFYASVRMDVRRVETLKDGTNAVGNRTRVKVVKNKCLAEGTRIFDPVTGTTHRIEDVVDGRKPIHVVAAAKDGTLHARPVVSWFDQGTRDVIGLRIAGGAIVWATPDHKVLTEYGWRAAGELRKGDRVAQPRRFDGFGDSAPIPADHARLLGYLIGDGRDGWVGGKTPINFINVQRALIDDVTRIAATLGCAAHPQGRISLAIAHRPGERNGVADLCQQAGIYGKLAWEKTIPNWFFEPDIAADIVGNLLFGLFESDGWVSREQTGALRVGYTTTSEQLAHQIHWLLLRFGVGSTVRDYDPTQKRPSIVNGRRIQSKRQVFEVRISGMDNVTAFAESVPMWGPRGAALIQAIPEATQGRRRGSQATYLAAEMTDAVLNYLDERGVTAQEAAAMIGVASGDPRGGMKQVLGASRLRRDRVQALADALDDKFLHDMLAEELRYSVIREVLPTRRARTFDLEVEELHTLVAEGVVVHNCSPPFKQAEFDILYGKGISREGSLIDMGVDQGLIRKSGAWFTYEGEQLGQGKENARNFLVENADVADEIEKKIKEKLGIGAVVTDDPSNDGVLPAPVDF

[11] = molecular target: T6, Short transient receptor potential channel 4 (Mus musculus, UniProt Q9QUQ5); assay: block of DAMGO-driven TRPC4 calcium entry – cell-based, HEK293 TRPC4/mu-opioid, Fluo-4 calcium, dose response (AID 434942); format: functional;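 note: potency of inhibitors blocking the TRPC4 calcium response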
T6 sequence (Q9QUQ5 whole entry): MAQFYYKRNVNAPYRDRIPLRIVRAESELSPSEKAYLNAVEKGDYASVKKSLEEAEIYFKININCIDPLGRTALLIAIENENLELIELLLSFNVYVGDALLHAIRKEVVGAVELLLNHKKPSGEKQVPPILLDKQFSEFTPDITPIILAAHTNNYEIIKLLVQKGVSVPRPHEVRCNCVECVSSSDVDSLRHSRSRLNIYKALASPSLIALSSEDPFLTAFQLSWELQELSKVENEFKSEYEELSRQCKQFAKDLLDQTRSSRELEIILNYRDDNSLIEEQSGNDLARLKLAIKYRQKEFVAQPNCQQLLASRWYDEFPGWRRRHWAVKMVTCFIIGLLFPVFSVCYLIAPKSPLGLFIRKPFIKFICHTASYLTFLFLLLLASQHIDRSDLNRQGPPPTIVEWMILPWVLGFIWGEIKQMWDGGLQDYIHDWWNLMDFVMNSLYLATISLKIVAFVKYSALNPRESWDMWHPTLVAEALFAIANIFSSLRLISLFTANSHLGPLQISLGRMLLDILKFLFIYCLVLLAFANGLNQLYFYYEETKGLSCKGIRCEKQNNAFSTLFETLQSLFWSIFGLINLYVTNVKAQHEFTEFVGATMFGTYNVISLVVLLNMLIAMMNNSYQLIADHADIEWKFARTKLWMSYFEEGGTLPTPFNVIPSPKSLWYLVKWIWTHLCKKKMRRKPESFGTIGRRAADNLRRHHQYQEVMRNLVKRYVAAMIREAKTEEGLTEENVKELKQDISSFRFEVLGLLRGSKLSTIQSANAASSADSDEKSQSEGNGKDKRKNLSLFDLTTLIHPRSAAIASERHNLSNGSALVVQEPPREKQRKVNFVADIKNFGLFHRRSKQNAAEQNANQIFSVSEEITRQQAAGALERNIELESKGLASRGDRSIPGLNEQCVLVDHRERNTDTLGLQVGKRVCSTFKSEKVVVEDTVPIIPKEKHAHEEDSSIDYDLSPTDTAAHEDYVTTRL

[12] = tested on: Streptococcus sp. 'group A'; assay: Streptococcus pyogenes SK(-)GAS viability under kanamycin – luminescence, BacTiterGlo, confirmation, counter-screen for streptokinase expression inhibitor project, dose response (AID 1900); format: functional, organism-based
[13] = molecular target: T7, Replicative DNA helicase DnaB (Mycobacterium tuberculosis, UniProt P9WMR3); assay: DnaB intein splicing inhibitors, dose response, biochemical, cell-free fluorescence (AID 449749); format: functional
T7 sequence (P9WMR3 whole entry): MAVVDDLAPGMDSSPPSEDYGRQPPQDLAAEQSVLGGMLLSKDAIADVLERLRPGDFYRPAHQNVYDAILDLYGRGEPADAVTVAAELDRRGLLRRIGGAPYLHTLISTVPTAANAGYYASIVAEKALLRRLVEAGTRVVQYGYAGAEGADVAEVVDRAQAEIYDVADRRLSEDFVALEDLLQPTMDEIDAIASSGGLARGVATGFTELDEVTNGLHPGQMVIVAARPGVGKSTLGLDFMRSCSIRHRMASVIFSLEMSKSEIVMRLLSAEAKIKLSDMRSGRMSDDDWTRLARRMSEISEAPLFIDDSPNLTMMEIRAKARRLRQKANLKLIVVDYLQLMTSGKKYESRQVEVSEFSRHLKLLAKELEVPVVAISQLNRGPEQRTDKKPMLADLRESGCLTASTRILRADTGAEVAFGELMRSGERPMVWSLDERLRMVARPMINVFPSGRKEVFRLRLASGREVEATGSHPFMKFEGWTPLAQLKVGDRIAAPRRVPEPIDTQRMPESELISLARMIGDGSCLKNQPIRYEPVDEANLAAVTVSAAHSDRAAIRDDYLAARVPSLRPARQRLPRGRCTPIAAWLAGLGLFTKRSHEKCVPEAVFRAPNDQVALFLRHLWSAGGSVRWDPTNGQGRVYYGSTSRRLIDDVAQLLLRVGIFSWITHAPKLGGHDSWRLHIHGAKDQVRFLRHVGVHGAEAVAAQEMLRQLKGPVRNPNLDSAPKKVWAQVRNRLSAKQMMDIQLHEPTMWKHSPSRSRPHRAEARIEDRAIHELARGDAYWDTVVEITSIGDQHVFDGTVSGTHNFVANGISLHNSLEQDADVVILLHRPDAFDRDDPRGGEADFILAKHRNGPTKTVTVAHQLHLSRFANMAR

[14] = tested on: Streptococcus; assay: GAS UMAA2166 growth inhibition – luminescence, BacTiterGlo, counter-screen for streptokinase expression inhibitor project, dose response (AID 1915); format: functional, organism-based;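 note: potency for reduction of bacterial viability or growth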

Chain of Induced myeloid leukemia cell differentiation protein Mcl-1 (Q07820 whole entry): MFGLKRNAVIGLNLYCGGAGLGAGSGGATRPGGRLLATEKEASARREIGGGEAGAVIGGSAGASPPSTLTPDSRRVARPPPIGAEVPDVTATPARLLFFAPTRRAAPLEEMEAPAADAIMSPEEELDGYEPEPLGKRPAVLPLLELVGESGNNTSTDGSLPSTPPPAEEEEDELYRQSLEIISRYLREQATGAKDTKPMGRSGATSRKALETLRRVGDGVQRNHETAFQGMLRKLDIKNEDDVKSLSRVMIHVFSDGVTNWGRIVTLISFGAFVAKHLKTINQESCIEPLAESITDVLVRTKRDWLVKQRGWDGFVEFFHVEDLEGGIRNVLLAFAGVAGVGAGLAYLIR

## COc1ccccc1/C=C1/SC(=O)N(CCC(=O)Nc2ccc(S(=O)(=O)Nc3nccs3)cc2)C1=O
[1]
  IC50: 2.69 µM (active)

## CC(=O)NNC(=O)c1sc(=S)n2c1[nH]c(=O)c1sccc12
[2]
  IC50: > 50 µM (not active)
[3]
  IC50: 11.6 µM (active)
[4]
  IC50: > 50 µM (not active)

## C[C@H]1CN(C2=C(Cl)C(=O)N(c3ccnc(Cl)c3)C2=O)CCN1
[5]
  IC50: > 50 µM (inconclusive)

## Nc1nnc(S)n1N=C1C(=O)Nc2ccccc21
[6]
  IC50: 57.4 µM (active)
[2]
  IC50: 30 µM (active)
[7]
  IC50: 7.65 µM (active)
[8]
  IC50: > 66 µM (inactive)
[4]
  IC50: 4.84 µM (active)
[9]
  IC50: > 66 µM (inactive)

## Cc1[nH]n(-c2ccccc2)c(=O)c1/C=C1/C(=O)NN(c2ccc(F)c(Cl)c2)C1=O
[10]
  EC50: 12 µM (active)
[11]
  EC50: 5.31 µM (active)
[12]
  EC50: 4.06 µM (active)
[13]
  AC50: 4.54 µM (active)
[14]
  EC50: 7.24 µM (active)
[1]
  IC50: 5.78 µM (active)

## Oc1ccc(/C=N/Nc2ccnc3cc(Cl)ccc23)c(O)c1
[1]
  IC50: 6.73 µM (active)

## CCCOc1ccc(Cc2nn3c(=O)/c(=C/c4ccco4)sc3nc2=O)cc1
[1]
  IC50: 8.96 µM (not active)
